# “And” between values parts separate entries of the source, which are not always exact repeats. Equal entries are not always repeated. “Also recorded” adds a separate entry of the source. Where two headings read alike, the source gives them in different places. Marks after values point to notes of the source that are not given here.
# Experiments:
# [1] = INFOGEST static in vitro gastrointestinal digestion, bioaccessibility from T. ferdinandiana freeze-dried powder; format: in vitro ADME
# Method: Freeze-dried T. ferdinandiana powder (0.5 g) was mixed with 20 mL milli-Q water, vortexed, and used as the initial starting material for in vitro gastrointestinal digestion based on the INFOGEST model detailed in Section INFOGEST Gastrointestinal in vitro Digestion ([14]). Digestions were performed in duplicate with samples collected at various time points throughout the digestion process. Gastric digesta samples were collected at t = 0 (G0) and t = 60 (G60) min into the gastric phase, and intestinal digesta were collected at t = 30 (I30), t = 60 (I60), and t = 120 (I120) min into the intestinal digestion phase.
# A harmonized in vitro gastrointestinal digestion method developed in the COST action INFOGEST network was applied ([14]). Oral phase was not included in this experiment as T. ferdinandiana fruit is currently marketed as freeze-dried powder that would not undergo a substantial oral phase or may be incorporated into a nutraceutical product in pill, capsule, or beverage form. The digestive fluids (simulated salivary fluid (SSF), simulated gastric fluid (SGF), and simulated intestinal fluid (SIF)) were prepared according to the INFOGEST method ([14]). The activity of all enzymes was also measured according to the protocols described in the INFOGEST method ([14]) to ensure standardized application. […] Porcine pancreatin was used at 16 units/mL trypsin activity. […] Figure 1 provides an overview of the digestion protocols and conditions employed in the study. At the end of each digestion steps, samples were collected and snap-frozen (−80°C) to stop the digestion. Pefabloc at a concentration of 0.1 M was recommended to stop intestinal digestion; however, considering the cytotoxic nature of Pefabloc at a concentration ≥ 0.25 mM, Pefabloc was not applied to avoid future cell toxicity.
# The samples were centrifuged and filtered through 0.22 μm syringe filters prior to analysis. An Acquity UHPLC system (Waters Corp., Milford, MA, USA), equipped with a Waters Acquity UHPLC photodiode array (PDA) detection system, was used to carry out the analysis. Empower™ software (Waters Corp., USA) was used to process and quantify peaks after recording the signals. A Waters Acquity HSS T3 analytical column (100 mm × 2.1 mm, 1.8 μm particle size) (Waters Corp., USA), with an isocratic mobile phase of 0.1% aqueous (v/v) formic acid at a flow rate of 250 μL/min, was used with an injection volume of 2 μL. The absorbance was measured at room temperature at 245 nm.
# T. ferdinandiana digesta and intestinal absorption samples were analyzed for EA. All samples were centrifuged and filtered through 0.22 μm PTFE membrane filters (Millipore, CA, USA) before injection into the chromatographic system. Samples were analyzed on a Waters Acquity UHPLC system (Waters Corp., Milford, MA, USA) equipped with PDA detector. A Waters BEH Shield RP18 Column 130 °A, 1.7 μm (100 mm X 2.1 mm) from Waters Corporation (Milford, Massachusetts, USA) was used. Column temperature was maintained at 40°C, the injection volume was 2 μL, PDA spectrum was scanned from 200 to 400 nm with a rate of 2.5 Hz, and detection was carried out at 254 nm. […] Formic acid 0.1% was used for mobile phase A (Milli-Q water) and phase B (acetonitrile) at a flow rate of 0.4 mL/min.
# T. ferdinandiana digesta and intestinal absorption samples were cleaned up with a SPE step ([20]) for OA analysis. Mixed reversed phase-[…] anion exchange sorbent Strata® SAX (55 μm, 70 Å, 500 mg/3 mL) was purchased from Phenomenex (Torrance, CA, USA) and used in this study. The SPE process was maintained through an Analytichem VAC ELUT SPS 24 Port Vacuum Manifold from Agilent Varian (Santa Clara, CA, USA). The SPE columns were sequentially conditioned with 3 mL of methanol and 3 mL of milli-Q water. Digesta and intestinal absorption samples at a volume of 1 mL dripped through the cartridges by gravity (with a flow rate of about 1 mL/min). The cartridges were washed with 3 mL of water and 3 mL of methanol.
# [2] = Intestinal absorption assay (Papp, apical to basolateral) across Caco-2-HT29-MTX-E12 coculture on Transwell; format: in vitro ADME, human; conditions: human, 10:1 dilution, applied 2 h, read-out: Apparent permeability (Papp)
# Method: (§1) Caco-2 and HT-29-MTX-E12 cells were seeded on Costar Transwell® plate inserts in a ratio of 9:1 and at a density of 1,09,000 cells/cm^2 and 12,120 cells/cm^2, respectively. Cells were cultured in growth media at 37°C and 5% CO2 for 21 days to facilitate cell differentiation and formation of an intact monolayer. During the 21-day differentiation period, growth media was removed and replaced with fresh media every 2–3 days. Cell differentiation of an intact monolayer was monitored by measuring the transepithelial electrical resistance (TEER) of the cell monolayer in an apical–basolateral direction. TEER was measured using the Millicell-ERS Voltohmmeter from Millipore (Burlington, MA, USA). TEER is a measurement of resistance and is a sensitive and convenient method to assess and the integrity of the cell monolayer. The values obtained are determined by cellular resistance (between apical and basolateral membrane) and the paracellular resistance (tight junctions). TEER values above 300 Ω.cm^2 are indicative of differentiated Caco-2-HT29-MTX-E12 cells and an intact monolayer ([17]).
# (§2) In vitro absorption was performed by following the procedure described by Osborne and colleagues ([18]). On the day of the intestinal absorption assay, TEER was measured and growth media was replaced with HBSS in the apical and basolateral chambers for 2 h to enhance uptake of the applied digesta. For the absorption study, intestinal digesta samples (I30, I60, and I120) were diluted 10:1 with HBSS. […] In the apical chamber, 200 μL diluted intestinal digesta (I30, I60, and I120) were applied for 120 min. HBSS (600 μL) was added in the basolateral chamber. After 2 h, all apical and basolateral samples were collected and stored at−80°C. HBSS was replaced with growth media in all chambers with TEER values measured again immediately after the assay. TEER was also recorded 24 and 48 h after the assay. Intestinal absorption studies were performed in duplicate. The rate of EA, AA, OA, and Ca^2+ movement across the transwell® membrane was determined by calculating the apparent permeability coefficient (Papp) in cm/s as follows ([19]):
# (§3) ΔQ/Δt is steady-state appearance rate of compound in receiver (basolateral) compartment (μmol/s).
# (§4) A is the surface area of the filter (i.e., 0.33 cm^2).
# (§5) C0 is the initial concentration in the donor (apical) compartment (μM).
# (§6) Intestinal absorption of AA, EA, OA, and Ca^2+ from digested T. ferdinandiana powder was measured using Caco-2-HT29-MTX-E12 coculture cell monolayers. Intestinal digesta samples that were collected at different time points (I30, I60, and I120) throughout the in vitro digestion were applied to the coculture transwell model for 120 min before apical and basolateral samples were collected. The amount of AA, EA, OA, and Ca^2+ was measured in the digesta initially applied to the apical chamber of the transwell model, and in samples collected from the basolateral chamber. Apparent permeability (Papp) was calculated with statistical significance observed (p ≤ 0.05) in Papp values obtained from the applied I30, I60, and I120 digesta samples (Figure 4 and Table 2).
# [3] = test system: Caco-2-HT29-MTX-E12 coculture cell monolayers; assay: as above; format: in vitro ADME, human; conditions: for In vitro permeability (in words): comparison among AA, EA, OA, Ca^2+; for Apparent permeability (Papp): 10:1 dilution, applied 2 h
# Method: as §1, §2, §3, §4, §5, §6
# [4] = design: method as in PMID 23374081; conditions: blended fruit juice containing orange, pineapple, and kiwi; cited from earlier work
# Caco-2 cell barrier = test system: Caco-2 cell barrier; design: method as in PMID 27738446; conditions: reported previously; cited from earlier work
# HepG2 cells = test system: HepG2 cells; design: method as in PMID 19101929; conditions: cited from earlier work
# [5] = Gastric t = 0 (G0), released from T. ferdinandiana fruit matrix
# [6] = Intestinal t = 30 min (I30), pancreatin and bile
# [7] = Gastric t = 60 min (G60), pepsin
# [8] = intestinal phase, time point not stated
"Bioaccessibility [1, 5]","Bioaccessibility [1, 6]",Bioaccessibility ([1]; Intestinal t = 60 min (I60)),Bioaccessibility ([1]; Intestinal t = 120 min (I120)),Papp at 120 min ([2]; I30 digesta) [×10⁻⁶ cm/s],Papp at 120 min ([2]; I60 digesta) [×10⁻⁶ cm/s],Papp at 120 min ([2]; I120 digesta) [×10⁻⁶ cm/s],"Bioaccessibility [1, 7]","Bioaccessibility [1, 8] [%]","Bioaccessibility ([1]; Gastric t = 0 (G0), released from T. ferdinandiana fruit matrix, listed as calcium) [%]",Apparent permeability (Papp) ([3]; I30 digesta),Apparent permeability (Papp) ([3]; I60 digesta),Apparent permeability (Papp) ([3]; I120 digesta),Structure (SMILES),In vitro permeability (in words) [3],Recovery after gastric digestion [4] [%],Papp (Caco-2 cell barrier),Time at which absorption was detected after application (HepG2 cells) [min],Time of peak absorption (HepG2 cells) [h]
93% and 93 ± 2^a %,93% and 93 ± 7^a %,100% and 100 ± 1^a %,79% and 79 ± 5^a %,41 ± 5,19 ± 0.4,10 ± 0.1,,,,,,,"O=C1O[C@H]([C@@H](O)CO)C(O)=C1O [AA, ascorbic acid]",low apparent permeability; also recorded: in vitro permeability was low,83,,,
33% and 33 ± 1^b %,49% and 49 ± 3^b %,49% and 49 ± 1^b %,48% and 48 ± 1^b %,796 ± 7,394 ± 4,201 ± 2,42 ± 1^b %,48,,,,,"O=c1oc2c(O)c(O)cc3c(=O)oc4c(O)c(O)cc1c4c23 [EA, ellagic acid]",highest permeability,,0.347 ± 0.018 /10^−6 cm/s,15,4
67 ± 4^c %,90% and 90^a ± 0.0%,90% and 90 ± 1^c %,79% and 79 ± 2^a %,,,,69 ± 1^a %,90,67,60 ± 6^a x 10^−6 cm/s,56 ± 7^a x 10^−6 cm/s,50 ± 9^a x 10^−6 cm/s,"[Ca+2] [Ca^2+, calcium]",,,,,
72% and 72 ± 7^c %,98% and 99^a ± 0.0%,98 ± 3^a %,89% and 89 ± 1^a %,258 ± 5,231 ± 1,150 ± 7,85 ± 2^a %,98,,,,,"O=C(O)C(=O)O [OA, oxalic acid]",,,,,

# Reference: article PMC8828953, “In vitro Bioaccessibility and Intestinal Absorption of Selected Bioactive Compounds in Terminalia ferdinandiana” (Frontiers in Nutrition, 2022)
